From PubChem BioAssay (NCI)
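The compound was tested at five concentrations on cells cultured in 96-well plates, with a 48-hour exposure period. GI50 = concentration required for 50% inhibition of growth. TGI marks complete inhibition of growth.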

What was measured:
Test in all cases: NCI anticancer screen, dose series, 48 h
KM12 colon = tested on: KM12 colon
SF-295 CNS = tested on: SF-295 CNS
K-562 leukemia = tested on: K-562 leukemia
HOP-62 NSCLC = tested on: HOP-62 NSCLC
CAKI-1 renal = tested on: CAKI-1 renal
CCRF-CEM leukemia = tested on: CCRF-CEM leukemia
PC-3 prostate = tested on: PC-3 prostate
DU-145 prostate = tested on: DU-145 prostate
RXF 393 renal = tested on: RXF 393 renal
SK-MEL-2 melanoma = tested on: SK-MEL-2 melanoma
A549 NSCLC = tested on: A549 NSCLC
HT29 colon = tested on: HT29 colon
HOP-92 NSCLC = tested on: HOP-92 NSCLC
MDA-MB-468 breast = tested on: MDA-MB-468 breast
MCF7 breast = tested on: MCF7 breast
A498 renal = tested on: A498 renal
SNB-19 CNS = tested on: SNB-19 CNS
NCI-H522 lung = tested on: NCI-H522 lung
ACHN renal = tested on: ACHN renal
MDA-MB-435 = tested on: MDA-MB-435
SN12C renal = tested on: SN12C renal
OVCAR-3 ovarian = tested on: OVCAR-3 ovarian
T-47D breast = tested on: T-47D breast
HCC-2998 colon = tested on: HCC-2998 colon
786-0 renal = tested on: 786-0 renal
MOLT-4 leukemia = tested on: MOLT-4 leukemia
MALME-3M melanoma = tested on: MALME-3M melanoma
SK-MEL-5 melanoma = tested on: SK-MEL-5 melanoma
HL-60(TB) leukemia = tested on: HL-60(TB) leukemia
SW-620 colon = tested on: SW-620 colon
NCI-H460 lung = tested on: NCI-H460 lung
SR leukemia = tested on: SR leukemia
UO-31 renal = tested on: UO-31 renal
SK-OV-3 ovarian = tested on: SK-OV-3 ovarian
MDA-MB-231 breast = tested on: MDA-MB-231 breast
M14 melanoma = tested on: M14 melanoma
OVCAR-4 ovarian = tested on: OVCAR-4 ovarian
NCI-H23 lung = tested on: NCI-H23 lung
HS 578T breast = tested on: HS 578T breast
UACC-62 melanoma = tested on: UACC-62 melanoma
SK-MEL-28 melanoma = tested on: SK-MEL-28 melanoma
BT-549 breast = tested on: BT-549 breast
LOX IMVI melanoma = tested on: LOX IMVI melanoma
UACC-257 melanoma = tested on: UACC-257 melanoma
NCI-H226 lung = tested on: NCI-H226 lung
COLO 205 colon = tested on: COLO 205 colon
OVCAR-8 ovarian = tested on: OVCAR-8 ovarian
HCT-15 colon = tested on: HCT-15 colon
EKVX NSCLC = tested on: EKVX NSCLC
SF-539 CNS = tested on: SF-539 CNS
U251 CNS = tested on: U251 CNS
TK-10 renal = tested on: TK-10 renal
SF-268 CNS = tested on: SF-268 CNS
IGROV1 ovarian = tested on: IGROV1 ovarian
RPMI-8226 leukemia = tested on: RPMI-8226 leukemia
HCT-116 colon = tested on: HCT-116 colon

COc1cc(/C=C/C(=O)c2cnn(-c3cc(=O)[nH]c4ccccc34)c2C)cc(OC)c1OC
GI50 (KM12 colon): 3.83 µM
TGI (KM12 colon): > 100 µM
GI50 (SF-295 CNS): 2.95 µM
TGI (SF-295 CNS): 18.1 µM
GI50 (K-562 leukemia): 2.68 µM
TGI (K-562 leukemia): > 100 µM
GI50 (HOP-62 NSCLC): 4.43 µM
TGI (HOP-62 NSCLC): 27.1 µM
GI50 (CAKI-1 renal): 4.05 µM
TGI (CAKI-1 renal): > 100 µM
GI50 (CCRF-CEM leukemia): 2.58 µM
TGI (CCRF-CEM leukemia): 21.5 µM
GI50 (PC-3 prostate): 7.39 µM
TGI (PC-3 prostate): > 100 µM
GI50 (DU-145 prostate): 4.21 µM
TGI (DU-145 prostate): > 100 µM
GI50 (RXF 393 renal): 2.65 µM
TGI (RXF 393 renal): 8.21 µM
GI50 (SK-MEL-2 melanoma): 2.89 µM
TGI (SK-MEL-2 melanoma): 10.2 µM
GI50 (A549 NSCLC): 3.78 µM
TGI (A549 NSCLC): > 100 µM
GI50 (HT29 colon): 3.14 µM
TGI (HT29 colon): > 100 µM
GI50 (HOP-92 NSCLC): 7.59 µM
TGI (HOP-92 NSCLC): 51.8 µM
GI50 (MDA-MB-468 breast): 2.22 µM
TGI (MDA-MB-468 breast): 6.06 µM
GI50 (MCF7 breast): 2.88 µM
TGI (MCF7 breast): > 100 µM
GI50 (A498 renal): 34.2 µM
TGI (A498 renal): > 100 µM
GI50 (SNB-19 CNS): 5.23 µM
TGI (SNB-19 CNS): > 100 µM
GI50 (NCI-H522 lung): 3.74 µM
TGI (NCI-H522 lung): 39.8 µM
GI50 (ACHN renal): 3.72 µM
TGI (ACHN renal): 25.5 µM
GI50 (MDA-MB-435): 3.34 µM
TGI (MDA-MB-435): > 100 µM
GI50 (SN12C renal): 2.2 µM
TGI (SN12C renal): 8.36 µM
GI50 (OVCAR-3 ovarian): 3.57 µM
TGI (OVCAR-3 ovarian): > 100 µM
GI50 (T-47D breast): 2.8 µM
TGI (T-47D breast): > 100 µM
GI50 (HCC-2998 colon): 4 µM
TGI (HCC-2998 colon): > 100 µM
GI50 (786-0 renal): 4.56 µM
TGI (786-0 renal): 28.9 µM
GI50 (MOLT-4 leukemia): 3.28 µM
TGI (MOLT-4 leukemia): > 100 µM
GI50 (MALME-3M melanoma): 5.84 µM
TGI (MALME-3M melanoma): > 100 µM
GI50 (SK-MEL-5 melanoma): 3.51 µM
TGI (SK-MEL-5 melanoma): 14.7 µM
GI50 (HL-60(TB) leukemia): 3.52 µM
TGI (HL-60(TB) leukemia): > 100 µM
GI50 (SW-620 colon): 3.59 µM
TGI (SW-620 colon): > 100 µM
GI50 (NCI-H460 lung): 2.55 µM
TGI (NCI-H460 lung): 7.29 µM
GI50 (SR leukemia): 3.82 µM
TGI (SR leukemia): > 100 µM
GI50 (UO-31 renal): 4.03 µM
TGI (UO-31 renal): 37.1 µM
GI50 (SK-OV-3 ovarian): 5.03 µM
TGI (SK-OV-3 ovarian): 35.9 µM
GI50 (MDA-MB-231 breast): 3.06 µM
TGI (MDA-MB-231 breast): 14.1 µM
GI50 (M14 melanoma): 4.45 µM
TGI (M14 melanoma): > 100 µM
GI50 (OVCAR-4 ovarian): 5.48 µM
TGI (OVCAR-4 ovarian): > 100 µM
GI50 (NCI-H23 lung): 2.66 µM
TGI (NCI-H23 lung): 7.98 µM
GI50 (HS 578T breast): 4.54 µM
TGI (HS 578T breast): > 100 µM
GI50 (UACC-62 melanoma): 5.18 µM
TGI (UACC-62 melanoma): 20.5 µM
GI50 (SK-MEL-28 melanoma): 4.94 µM
TGI (SK-MEL-28 melanoma): > 100 µM
GI50 (BT-549 breast): 3.48 µM
TGI (BT-549 breast): 24.9 µM
GI50 (LOX IMVI melanoma): 2.1 µM
TGI (LOX IMVI melanoma): 5.64 µM
GI50 (UACC-257 melanoma): 7.03 µM
TGI (UACC-257 melanoma): > 100 µM
GI50 (NCI-H226 lung): 5.24 µM
TGI (NCI-H226 lung): 47.8 µM
GI50 (COLO 205 colon): 3.71 µM
TGI (COLO 205 colon): 17.5 µM
GI50 (OVCAR-8 ovarian): 2.11 µM
TGI (OVCAR-8 ovarian): 5.09 µM
GI50 (HCT-15 colon): 3.23 µM
TGI (HCT-15 colon): 26.1 µM
GI50 (EKVX NSCLC): 3.42 µM
TGI (EKVX NSCLC): > 100 µM
GI50 (SF-539 CNS): 2.01 µM
TGI (SF-539 CNS): 4.84 µM
GI50 (U251 CNS): 2.74 µM
TGI (U251 CNS): 13.6 µM
GI50 (TK-10 renal): 4.62 µM
TGI (TK-10 renal): > 100 µM
GI50 (SF-268 CNS): 4.26 µM
TGI (SF-268 CNS): > 100 µM
GI50 (IGROV1 ovarian): 3 µM
TGI (IGROV1 ovarian): 16.3 µM
GI50 (RPMI-8226 leukemia): 2.99 µM
TGI (RPMI-8226 leukemia): > 100 µM
GI50 (HCT-116 colon): 7.13 µM
TGI (HCT-116 colon): > 100 µM
